Data reported in patent publication US8178522B2, “Thiazoles” (Hoffmann-La Roche Inc., priority 2009, dated 2012).

Biological target: T1, GABA A α5 (α5β3γ2) (Homo sapiens, UniProt P18507+P31644)
T1 construct: expressed in transfected cells; host or cells: HEK293, transiently transfected; membrane preparation
Test: [3H]flumazenil competition binding, human GABA A α5 receptor
Details: human receptor α5β3γ2 transiently transfected in HEK293 cells; competition for [3H]flumazenil 0.5 nM; 1 hour at 4° C.; means of two determinations; read-out: hKi GABA A α5
Procedure: Membrane Preparation and Binding Assay
The affinity of compounds at GABA A receptor subtypes was measured by competition for [3H]flumazenil (85 Ci/mmol; Roche) binding to HEK293 cells expressing rat (stably transfected) or human (transiently transfected) receptors of compositional α1β3γ2, α2β3γ2, α3β3γ2 and α5β3γ2.
Cell pellets were suspended in Krebs-tris buffer (4.8 mM KCl, 1.2 mM CaCl2, 1.2 mM MgCl2, 120 mM NaCl, 15 mM Tris; pH 7.5; binding assay buffer), homogenized by polytron for ca. 20 sec on ice and centrifuged for 60 min at 4° C. (50000 g; Sorvall, rotor: SM24=20000 rpm). The cell pellets were re-suspended in Krebs-tris buffer and homogenized by polytron for ca. 15 sec on ice. Protein was measured (Bradford method, Bio-Rad) and aliquots of 1 mL were prepared and stored at −80° C.
Assays were incubated to equilibrium for 1 hour at 4° C. and harvested onto GF/C uni-filters (Packard) by filtration using a Packard harvester and washing with ice-cold wash buffer (50 mM Tris; pH 7.5). After drying, filter-retained radioactivity was detected by liquid scintillation counting. Ki values were calculated using Excel-Fit (Microsoft) and are the means of two determinations.

Structure (SMILES) | Ki
Cc1onc(-c2ccccc2)c1/C=C/c1ncc(C(=O)NC(C)CO)s1 (stereo not drawn) [Example 66, 2-[(E)-2-(5-Methyl-3-phenyl-isoxazol-4-yl)-vinyl]-thiazole-5-carboxylic acid (2-hydroxy-1-methyl-ethyl)-amide] | 1.8 nM
Cc1nc(CCc2conc2-c2ccccn2)sc1C(=O)NCC(F)(F)F [Example 20, 4-Methyl-2-[2-(3-pyridin-2-yl-isoxazol-4-yl)-ethyl]-thiazole-5-carboxylic acid (2,2,2-trifluoro-ethyl)-amide] | 90.5 nM
Cc1nc(CCc2c(-c3ccccc3)noc2C)sc1C(=O)NC1CCOCC1 [Example 5, 4-Methyl-2-[2-(5-methyl-3-phenyl-isoxazol-4-yl)-ethyl]-thiazole-5-carboxylic acid (tetrahydro-pyran-4-yl)-amide] | 8.2 nM
Cc1onc(-c2ccc(F)cn2)c1/C=C/c1ncc(C(=O)NC(C)C)s1 [Example 78, 2-{(E)-2-[3-(5-Fluoro-pyridin-2-yl)-5-methyl-isoxazol-4-yl}-vinyl]-thiazole-5-carboxylic acid isopropylamide] | 2.9 nM
CCCCc1noc(C)c1CCc1ncc(C(=O)NC(C)C)s1 [Example 57, 2-[2-(3-Butyl-5-methyl-isoxazol-4-yl)-ethyl]-thiazole-5-carboxylic acid isopropylamide] | 39.2 nM
CNC(=O)c1cnc(CCc2c(-c3ccc(F)cn3)noc2C)s1 [Example 47, 2-{2-[3-(5-Fluoro-pyridin-2-yl)-5-methyl-isoxazol-4-yl]-ethyl}-thiazole-5-carboxylic acid methylamide] | 26.3 nM
Cc1onc(-c2ccc(F)cn2)c1CCc1ncc(C(=O)NCC(F)(F)F)s1 [Example 44, 2-{2-[3-(5-Fluoro-pyridin-2-yl)-5-methyl-isoxazol-4-yl]-ethyl}-thiazole-5-carboxylic acid (2,2,2-trifluoro-ethyl)-amide] | 15.7 nM
Cc1onc(-c2ccccn2)c1CCc1ncc(C(N)=O)s1 [Example 25, 2-[2-(5-Methyl-3-pyridin-2-yl-isoxazol-4-yl)-ethyl]-thiazole-5-carboxylic acid amide] | 33.6 nM
Cc1nc(CCc2conc2-c2ccccn2)sc1C(=O)NC1CCOCC1 [Example 19, 4-Methyl-2-[2-(3-pyridin-2-yl-isoxazol-4-yl)-ethyl]-thiazole-5-carboxylic acid (tetra-hydro-pyran-4-yl)-amide] | 87.6 nM
Cc1nc(CCc2c(-c3ccc(F)cn3)noc2C)sc1C(=O)NC(C)C [Example 32, 2-{2-[3-(5-Fluoro-pyridin-2-yl)-5-methyl-isoxazol-4-yl]-ethyl}-4-methyl-thiazole-5-carboxylic acid isopropylamide] | 7 nM
CCCCc1noc(C)c1/C=C/c1nc(C)c(C(=O)NCC(F)(F)F)s1 [Example 119, 2-[(E)-2-(3-Butyl-5-methyl-isoxazol-4-yl)-vinyl]-4-methyl-thiazole-5-carboxylic acid (2,2,2-trifluoro-ethyl)-amide] | 2.4 nM
Cc1nc(/C=C/c2conc2-c2ccc(F)cn2)sc1C(=O)NC1CCOCC1 [Example 90, 2-{(E)-2-[3-(5-Fluoro-pyridin-2-yl)-isoxazol-4-yl]-vinyl}-4-methyl-thiazole-5-carboxylic acid (tetrahydro-pyran-4-yl)-amide] | 24.8 nM
Cc1onc(-c2ccccc2)c1/C=C/c1ncc(C(=O)NC(C)C)s1 [Example 65, 2-[(E)-2-(5-Methyl-3-phenyl-isoxazol-4-yl)-vinyl]-thiazole-5-carboxylic acid isoprop-ylamide] | 1.3 nM
CCCCc1noc(C)c1/C=C/c1nc(C)c(C(=O)NC2CCS(=O)(=O)C2)s1 (stereo not drawn) [Example 118, 2-[(E)-2-(3-Butyl-5-methyl-isoxazol-4-yl)-vinyl]-4-methyl-thiazole-5-carboxylic acid (1,1-dioxo-tetrahydrothiophen-3-yl)-amide] | 2.5 nM
Cc1nc(/C=C/c2c(-c3ccc(F)cn3)noc2C)sc1C(=O)NC1CC1 [Example 73, 2-{(E)-2-[3-(5-Fluoro-pyridin-2-yl)-5-methyl-isoxazol-4-yl]-vinyl}-4-methyl-thiazole-5-carboxylic acid cyclopropylamide] | 1.6 nM
Cc1onc(-c2ccc(F)cn2)c1CCc1ncc(C(=O)NCCO)s1 [Example 45, 2-{2-[3-(5-Fluoro-pyridin-2-yl)-5-methyl-isoxazol-4-yl]-ethyl}-thiazole-5-carboxylic acid (2-hydroxy-ethyl)-amide] | 26.3 nM
CCCCc1noc(C)c1/C=C/c1nc(C)c(C(=O)NC2CC2)s1 [Example 113, 2-[(E)-2-(3-Butyl-5-methyl-isoxazol-4-yl)-vinyl]-4-methyl-thiazole-5-carboxylic acid cyclopropylamide] | 5.1 nM

Structure (SMILES) | Ki
CCCCc1noc(C)c1CCc1nc(C)c(C(=O)NCC(C)O)s1 (stereo not drawn) [Example 56, 2-[2-(3-Butyl-5-methyl-isoxazol-4-yl)-ethyl]-4-methyl-thiazole-5-carboxylic acid (2-hydroxy-propyl)-amide] | 16.9 nM
CCCCc1noc(C)c1/C=C/c1nc(C)c(C(=O)N[C@H](CC)CO)s1 [Example 105, 2-[(E)-2-(3-Butyl-5-methyl-isoxazol-4-yl)-vinyl]-4-methyl-thiazole-5-carboxylic acid ((R)-1-hydroxymethyl-propyl)-amide] | 7.9 nM
CCCCc1noc(C)c1/C=C/c1nc(C)c(C(=O)N[C@H]2CCC[C@@H]2O)s1 [Example 111, 2-[(E)-2-(3-Butyl-5-methyl-isoxazol-4-yl)-vinyl]-4-methyl-thiazole-5-carboxylic acid ((1S,2S)-2-hydroxy-cyclopentyl)-amide] | 5.5 nM
CCCCc1noc(C)c1CCc1ncc(C(=O)NC2CCOCC2)s1 [Example 59, 2-[2-(3-Butyl-5-methyl-isoxazol-4-yl)-ethyl]-thiazole-5-carboxylic acid (tetrahydro-pyran-4-yl)-amide] | 32.5 nM
CCCCc1noc(C)c1CCc1nc(C)c(C(=O)NC2CCOC2)s1 (racemic) [Example 52, Rac-2-[2-(3-Butyl-5-methyl-isoxazol-4-yl)-ethyl]-4-methyl-thiazole-5-carboxylic acid (tetrahydro-furan-3-yl)-amide] | 15.2 nM
Cc1nc(/C=C/c2c(-c3ccc(F)cn3)noc2C)sc1C(=O)NCC1CC1 [Example 75, 2-{(E)-2-[3-(5-Fluoro-pyridin-2-yl)-5-methyl-isoxazol-4-yl]-vinyl}-4-methyl-thiazole-5-carboxylic acid cyclopropylmethyl-amide] | 1.8 nM
CCCCc1noc(C)c1COc1ncc(C(=O)NC(C)CO)s1 (racemic) [Example 133, Rac-2-(3-Butyl-5-methyl-isoxazol-4-ylmethoxy)-thiazole-5-carboxylic acid (2-hydroxy-1-methyl-ethyl)-amide] | 19.2 nM
Cc1nc(CCc2c(-c3ccccn3)noc2C)sc1C(=O)NC1CC1 [Example 11, 4-Methyl-2-[2-(5-methyl-3-pyridin-2-yl-isoxazol-4-yl)-ethyl]-thiazole-5-carboxylic acid cyclopropylamide] | 7.7 nM
Cc1nc(CCc2c(-c3ccc(F)cn3)noc2C)sc1C(=O)N1CCSCC1 [Example 37, (2-{2-[3-(5-Fluoro-pyridin-2-yl)-5-methyl-isoxazol-4-yl]-ethyl}-4-methyl-thiazol-5-yl)-thiomorpholin-4-yl-methanone] | 55.9 nM
Cc1onc(-c2ccccn2)c1CCc1ncc(C(=O)NCC(F)(F)F)s1 [Example 28, 2-[2-(5-Methyl-3-pyridin-2-yl-isoxazol-4-yl)-ethyl]-thiazole-5-carboxylic acid (2,2,2-trifluoro-ethyl)-amide] | 17.8 nM
Cc1nc(/C=C/c2c(-c3ccccc3)noc2C)sc1C(=O)NC(C)C [Example 68, 4-Methyl-2-[(E)-2-(5-methyl-3-phenyl-isoxazol-4-yl)-vinyl]-thiazole-5-carboxylic acid isopropylamide] | 0.4 nM
CCCCc1noc(C)c1CCc1ncc(C(=O)NCC(C)O)s1 (stereo not drawn) [Example 62, 2-[2-(3-Butyl-5-methyl-isoxazol-4-yl)-ethyl]-thiazole-5-carboxylic acid (2-hydroxy-propyl)-amide] | 45 nM
Cc1onc(-c2ccc(F)cn2)c1/C=C/c1ncc(C(=O)N2CCSCC2)s1 [Example 89, (2-{(E)-2-[3-(5-Fluoro-pyridin-2-yl)-5-methyl-isoxazol-4-yl]-vinyl}-thiazol-5-yl)-thiomorpholin-4-yl-methanone] | 22.8 nM
CCNC(=O)c1sc(CCc2c(-c3ccccn3)noc2C)nc1C [Example 15, 4-Methyl-2-[2-(5-methyl-3-pyridin-2-yl-isoxazol-4-yl)-ethyl]-thiazole-5-carboxylic acid ethylamide] | 12 nM
Cc1onc(-c2ccc(F)cn2)c1CCc1ncc(C(=O)NC(C)C)s1 [Example 41, 2-{2-[3-(5-Fluoro-pyridin-2-yl)-5-methyl-isoxazol-4-yl]-ethyl}-thiazole-5-carboxylic acid isopropylamide] | 10.8 nM
Cc1onc(-c2ccccc2)c1CCc1ncc(C(=O)NC(C)C)s1 [Example 7, 2-[2-(5-Methyl-3-phenyl-isoxazol-4-yl)-ethyl]-thiazole-5-carboxylic acid isopropyl-amide] | 13.8 nM
